{"source": "paper PMC3251870", "about": "(British Journal of Cancer, 2011)", "key": {"[1]": {"tested_on": "HBEC30KT human bronchial epithelial cells", "assay": "MTS cell viability, HBEC30KT", "assay_type": "cell-based", "settings": "Homo sapiens, Epithelial cell, 96 h, HBEC30KT, 4 days", "procedure": "(§1) All human cancer cell lines were maintained in RPMI media supplemented with 5% (lung and breast cancer cells) or 10% (melanoma cells) fetal bovine serum. […] Human mammary epithelial cells immortalised with telomerase were maintained in complete MEGM media from Cambrex (East Rutherford, NJ, USA).\n(§2) Absorbance at 490 and 650 nm (reference wavelength) was measured by a Spectra Max (Molecular Devices, Sunnyvale, CA, USA) or a FlouroStar Omega (BMG Biosciences, Ortenberg, Germany) plate reader. Data were normalised to the untreated controls (100% viability). Each cell line was tested in 1–5 independent assays, each containing 4–8 replicates. IC50 values were calculated using DIVISA, a high-throughput software, developed in-house (manuscript in preparation), for storing and analysing drug sensitivity assays. Dose–response curves were plotted using a non-linear regression model and IC50s were determined from the fitted curves."}, "SKMEL2 melanoma cells": {"tested_on": "SKMEL2 melanoma cells", "assay": "MTS cell viability, SKMEL2", "assay_type": "cell-based, human", "settings": "SK-MEL2, MTS, 4 days", "procedure": "as §1, §2"}, "Melanocytes": {"tested_on": "Melanocytes", "assay": "MTS cell viability, primary melanocytes", "assay_type": "cell-based, human", "settings": "Homo sapiens, Melanocyte, 96 h, 4 days", "procedure": "as §1, §2"}, "[2]": {"tested_on": "HCC4018 lung cancer cells", "assay": "MTS cell viability, HCC4018", "assay_type": "cell-based, human", "settings": "Homo sapiens, 96 h; HCC4018, MTS, 4 days", "procedure": "as §1, §2"}, "[3]": {"tested_on": "OCM1 uveal melanoma cells", "assay": "MTS cell viability, OCM1", "assay_type": "cell-based, human", "settings": "Homo sapiens, 96 h, 4 days", "procedure": "as §1, §2"}, "[4]": {"tested_on": "HBEC34KT human bronchial epithelial cells", "assay": "MTS cell viability, HBEC34KT", "assay_type": "cell-based", "settings": "Homo sapiens, Epithelial cell, 96 h, HBEC34KT, 4 days", "procedure": "as §1, §2"}, "[5]": {"tested_on": "OCM3 uveal melanoma cells", "assay": "MTS cell viability, OCM3", "assay_type": "cell-based, human", "settings": "Homo sapiens, 96 h, 4 days", "procedure": "as §1, §2"}, "[6]": {"tested_on": "HCC4017 lung cancer cells", "assay": "MTS cell viability, HCC4017", "assay_type": "cell-based, human", "settings": "Homo sapiens, 96 h; HCC4017, MTS, 4 days", "procedure": "as §1, §2"}, "[7]": {"tested_on": "OMM2.3 uveal melanoma cells", "assay": "MTS cell viability, OMM2.3", "assay_type": "cell-based, human", "settings": "Homo sapiens, 96 h, 4 days", "procedure": "as §1, §2"}, "[8]": {"tested_on": "patient-matched human bronchial epithelial cells/human non-small lung cancer cells (HBEC30KT/HCC4017, HBEC34KT/HCC4018)", "assay": "Cancer vs normal selectivity in patient-matched pairs (MTS viability)", "assay_type": "cell-based", "procedure": "as §1, §2"}, "[9]": {"tested_on": "MEL270 uveal melanoma cells", "assay": "MTS cell viability, MEL270", "assay_type": "cell-based, human", "settings": "Homo sapiens, 96 h, 4 days", "procedure": "as §1, §2"}, "LOXIMVI melanoma cells": {"tested_on": "LOXIMVI melanoma cells", "assay": "MTS cell viability, LOXIMVI", "assay_type": "cell-based, human", "settings": "LOXIMVI, 4 days", "procedure": "as §1, §2"}, "H1437 cells": {"tested_on": "H1437 cells", "assay": "MTS cell viability, H1437", "assay_type": "cell-based, human", "settings": "cell viability, Supplementary Figure 2D", "procedure": "as §1, §2"}, "HCC15 cells": {"tested_on": "HCC15 cells", "assay": "MTS cell viability, HCC15", "assay_type": "cell-based, human", "settings": "cell viability, Supplementary Figure 2C", "procedure": "as §1, §2"}, "H2073 cells": {"tested_on": "H2073 cells", "assay": "MTS cell viability, H2073", "assay_type": "cell-based, human", "settings": "H2073 cells, verapamil plus depsipeptide", "procedure": "as §1, §2"}, "H1993 cells": {"tested_on": "H1993 cells", "assay": "MTS cell viability, H1993", "assay_type": "cell-based, human", "settings": "H1993 cells, verapamil plus depsipeptide", "procedure": "as §1, §2"}}}
{"smiles": "CCC(=O)CCCCC[C@@H]1NC(=O)[C@H]2CCCCN2C(=O)[C@H]([C@@H](C)CC)NC(=O)[C@H](Cc2cn(OC)c3ccccc23)NC1=O", "note": "[Apicidin, apicidin]", "values": [{"measurement": "IC50", "setting": "[1]", "value": 90, "unit": "nM"}, {"measurement": "sensitivity (position in drug sensitivity profile of melanoma panel)", "setting": "SKMEL2 melanoma cells", "value": "on the sensitive side"}, {"measurement": "IC50", "setting": "Melanocytes", "value": 200, "unit": "nM"}, {"measurement": "IC50", "setting": "[2]", "value": 30, "unit": "nM"}, {"measurement": "IC50", "setting": "[3]", "value": 700, "unit": "nM"}, {"measurement": "IC50", "setting": "[4]", "value": 790, "unit": "nM"}, {"measurement": "IC50", "setting": "[5]", "value": 4000, "unit": "nM"}, {"measurement": "IC50", "setting": "[6]", "value": 120, "unit": "nM"}, {"measurement": "IC50", "setting": "[7]", "value": 400, "unit": "nM"}, {"measurement": "selectivity for cancer vs normal within a matched pair", "setting": "[8]; one matched lung cancer/HBEC pair", "value": "no selectivity"}, {"measurement": "selectivity for cancer vs normal within a matched pair", "setting": "[8]; second pair of lines", "value": "~25", "unit": "fold"}, {"measurement": "IC50", "setting": "[9]", "value": 650, "unit": "nM"}, {"measurement": "sensitivity (position in drug sensitivity profile of melanoma panel)", "setting": "LOXIMVI melanoma cells", "value": "sensitive"}]}
{"smiles": "Nc1ccccc1NC(=O)c1ccc(CNC(=O)OCc2cccnc2)cc1", "note": "[MS-275]", "values": [{"measurement": "relative potency against H1437 vs HCC15 cells", "setting": "H1437 cells", "value": "more potent against H1437 cells than HCC15 cells"}]}
{"smiles": "O=C(CCCCCN1C(=O)c2cccc3cccc(c23)C1=O)NO", "note": "[Scriptaid]", "values": [{"measurement": "relative sensitivity of HCC15 compared with H1437 cells", "setting": "HCC15 cells", "value": "more sensitive"}]}
{"smiles": "COc1ccc(CCN(C)CCCC(C#N)(c2ccc(OC)c(OC)c2)C(C)C)cc1OC", "note": "(centres unmarked) [verapamil]", "values": [{"measurement": "restoration of sensitivity to depsipeptide by MDR1 inhibition", "setting": "H2073 cells", "value": "partly re-sensitised"}, {"measurement": "restoration of sensitivity to depsipeptide by MDR1 inhibition", "setting": "H1993 cells", "value": "not affecting"}]}
